# According to patent US8629158B2, “Azabicycloalkane-indole and azabicycloalkane-pyrrolo-pyridine MCH-1 antagonists, methods of making, and use thereof” (Albany Molecular Research, Inc., priority 2009, dated 2014):
# Structures can show the parent of a compound that is named as a salt. Where two headings read alike, the source gives them in different places.
# Legend:
# human MCH-1 receptor = human MCH-1 receptor (Homo sapiens (Human), UniProt Q99705); assay: Binding Assay for Human Melanin-Concentrating Hormone (MCH-1) Receptor (radioligand displacement, CHO-K1 membranes); conditions: membranes from CHO-K1 cells expressing human MCH1 receptor, [3H]-labeled radioligand, Ki from IC50 by Cheng Prusoff
# human MCH-1 receptor, sequence (Q99705 whole entry): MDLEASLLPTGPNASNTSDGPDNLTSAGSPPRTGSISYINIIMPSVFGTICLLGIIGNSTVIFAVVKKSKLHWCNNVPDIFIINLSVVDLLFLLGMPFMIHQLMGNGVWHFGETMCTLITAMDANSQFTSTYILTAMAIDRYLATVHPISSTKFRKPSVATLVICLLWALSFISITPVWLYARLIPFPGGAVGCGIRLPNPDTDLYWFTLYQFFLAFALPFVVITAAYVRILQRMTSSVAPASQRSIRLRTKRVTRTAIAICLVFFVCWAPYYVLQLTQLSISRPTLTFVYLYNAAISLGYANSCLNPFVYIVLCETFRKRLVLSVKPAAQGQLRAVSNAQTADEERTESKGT
# Experimental: Evaluation of the affinity of compounds for the human MCH-1 receptor was accomplished using 4-(3,4,5-tritritiumbenzyloxy)-1-(1-(2-(pyrrolidin-1-yl)ethyl)-1H-indazol-5-yl)pyridin-2(1H)-one and membranes prepared from stable CHO-K1 cells expressing the human MCH1 receptor obtained from Euroscreen (Batch 1138). Cell membrane homogenates (8.92 μg protein) were incubated for 60 min at 25° C. with […] of the [^3H]-labeled compound in the absence or presence of the test compound in 50 mM Tris-HCl buffer, pH 7.4. Nonspecific binding was determined in the presence of 50 μM 1-(5-(4-cyanophenyl)bicyclo[3.1.0]hexan-2-yl)-3-(4-fluoro-3-(trifluoromethyl)phenyl)-1-(3-(4-methylpiperazin-1-yl)propyl)urea. Following incubation, the samples were filtered rapidly under vacuum through Skatron 11731 filters, pre-soaked in 0.5% polyethylenimine, and washed with ice-cold 50 mM Tris-HCl buffer, pH 7.4, (wash setting 9,9,0) using a Skatron cell harvester. The filters were counted for radioactivity in a liquid scintillation counter (Tri-Carb 2100TR, Packard) using a scintillation cocktail (Ultima Gold MV, Perkin Elmer).
# The results are expressed as a percent inhibition of the control radioligand specific binding. The IC50 value (concentration causing a half-maximal inhibition of control specific binding) and Hill coefficient (nH) were determined by non-linear regression analysis of the competition curve using Hill equation curve fitting. The inhibition constant (Ki) was calculated from the Cheng Prusoff equation: (Ki=IC50/(1+(L/KD)), where L=concentration of radioligand in the assay, and KD=affinity of the radioligand for the receptor.
Structure (SMILES),melting point,Ki (human MCH-1 receptor; MCH-1 Ki (nM)),Ki (human MCH-1 receptor; read-out: MCH-1 Ki)
"Cn1c2c(c3ccc(-n4ccc(-c5ccc(C(F)(F)F)nc5)cc4=O)cc31)C1CCC(C2)N1 (centres unmarked) (as salt: hydrochloride) [Example 5, 1-(5-Methyl-5,6,7,8,9,10-hexahydro-7,10-iminocyclohept[b]indol-3-yl)-4-(6-(trifluoromethyl)pyridin-3-yl)pyridin-2(1H)-one dihydrochloride]",228 to 233 °C,–,–
"Cn1c2c(c3ccc(-n4ccc(OCc5ccc(F)cn5)cc4=O)cc31)C1CCC(C2)N1 (centres unmarked) (as salt: hydrochloride) [Example 6, 4-((5-Fluoropyridin-2-yl)methoxy)-1-(5-methyl-5,6,7,8,9,10-hexahydro-7,10-iminocyclohept[b]indol-3-yl)pyridin-2(1H)-one dihydrochloride]",180 to 190 °C,–,–
"O=c1cc(OCc2ccc(F)cn2)ccn1-c1ccc2c3c([nH]c2c1)CC1CCC3N1 (centres unmarked) (as salt: hydrochloride) [Example 9, 4-((5-Fluoropyridin-2-yl)methoxy)-1-(5,6,7,8,9,10-hexahydro-7,10-iminocyclohept[b]indol-3-yl)pyridin-2(1H)-one dihydrochloride]",205 to 211 °C (dec.),–,–
"CC(=O)N1C2CCC1c1c([nH]c3cc(-n4ccc(OCc5ccccc5)cc4=O)ccc13)C2 (single isomer, unassigned; enantiomer a) (as salt: hydrochloride) [Example 30, 1-(11-Acetyl-5,6,7,8,9,10-hexahydro-7,10-iminocyclohept[b]indol-3-yl)-4-(benzyloxy)pyridin-2(1H)-one hydrochloride (Enantiomer A)]",140 to 170 °C,–,–
"Cl.O=c1cc(OCc2ccccc2)ccn1-c1ccc2c3c([nH]c2c1)CC1CCC3N1 (single isomer, unassigned; enantiomer a) [Example 21, (+)-4-(Benzyloxy)-1-(5,6,7,8,9,10-hexahydro-7,10-iminocyclohept[b]indol-3-yl)pyridin-2(1H)-one hydrochloride (Enantiomer A)]",211 to 212 °C,39 nM,–
"Cl.O=c1cc(OCc2ccccc2)ccn1-c1ccc2c3c([nH]c2c1)CC1CCC3N1 (single isomer, unassigned; enantiomer b) [Example 20, (−)-4-(Benzyloxy)-1-(5,6,7,8,9,10-hexahydro-7,10-iminocyclohept[b]indol-3-yl)pyridin-2(1H)-one hydrochloride (Enantiomer B)]",211 to 217 °C,9.3 nM,–
"Cl.Cn1c2c(c3ccc(-n4ccc(-c5ccc(C(F)(F)F)nn5)cc4=O)cc31)C1CCC(C2)N1 (centres unmarked) [Example 3, 1-(5-Methyl-5,6,7,8,9,10-hexahydro-7,10-iminocyclohept[b]indol-3-yl)-4-(6-(trifluoromethyl)pyridazin-3-yl)pyridin-2(1H)-one hydrochloride]",235 to 245 °C,–,24.4 nM
"Cl.O=c1cc(OCc2ccccc2)ccn1-c1ccc2c3c([nH]c2c1)CC1CCC3N1 (centres unmarked) [Example 8, 4-(Benzyloxy)-1-(5,6,7,8,9,10-hexahydro-7,10-iminocyclohept[b]indol-3-yl)pyridin-2(1H)-one hydrochloride]",209 to 214 °C,–,9.8 nM
"Cl.O=c1cc(-c2ccc(C(F)(F)F)nc2)ccn1-c1ccc2c3c([nH]c2c1)CC1CCC3N1 (centres unmarked) [Example 10, 1-(5,6,7,8,9,10-Hexahydro-7,10-iminocyclohept[b]indol-3-yl)-4-(6-(trifluoromethyl)pyridin-3-yl)pyridin-2(1H)-one hydrochloride]",215 to 235 °C (dec.),–,22.7 nM
"Cl.Cn1c2c(c3ccc(-n4ccc(-c5ccc(C(F)(F)F)nc5)cc4=O)cc31)C1CCCC(C2)N1 (centres unmarked) [Example 13, 1-(5-Methyl-6,7,8,9,10,11-hexahydro-7,11-imino-5H-cyclooct[b]indol-3-yl)-4-(6-(trifluoromethyl)pyridin-3-yl)pyridin-2(1H)-one hydrochloride]",265 to 274 °C (dec.),–,46.3 nM
"Cc1ccc(COc2cnn(-c3ccc4c5c(n(C)c4c3)CC3CCCC5N3)c(=O)c2)cn1.Cl (centres unmarked) [Example 18, 2-(5-Methyl-6,7,8,9,10,11-hexahydro-7,11-imino-5H-cyclooct[b]indol-3-yl)-5-((6-methylpyridin-3-yl)methoxy)pyridazin-3(2H)-one hydrochloride]",190 to 200 °C,–,73 nM
"Cl.Cn1c2c(c3ccc(-n4ccc(OCc5ccc(C(F)(F)F)nc5)cc4=O)cc31)C1CCCC(C2)N1 (centres unmarked) [Example 19, 1-(5-Methyl-6,7,8,9,10,11-hexahydro-7,11-imino-5H-cyclooct[b]indol-3-yl)-4-((6-(trifluoromethyl)pyridin-3-yl)methoxy)pyridin-2 (1H)-one hydrochloride]",240 to 250 °C,–,13 nM
"Cl.O=c1cc(OCc2ccccn2)ccn1-c1ccc2c3c([nH]c2c1)CC1CCC3N1 (centres unmarked) [Example 22, 1-(5,6,7,8,9,10-Hexahydro-7,10-iminocyclohept[b]indol-3-yl)-4-((pyridin-2-yl)methoxy)pyridin-2(1H)-one hydrochloride]",220 to 230 °C,–,25 nM
"Cl.Cn1c2c(c3ccc(-n4ccc(OCc5ccccn5)cc4=O)cc31)C1CCC(C2)N1 (centres unmarked) [Example 23, 1-(5-Methyl-6,7,8,9,10-hexahydro-7,10-iminocyclohept[b]indol-3-yl)-4-((pyridin-2-yl)methoxy)pyridin-2(1H)-one hydrochloride]",175 to 195 °C,–,17 nM
"CN1C2CCC1c1c(n(C)c3cc(-n4ccc(OCc5ccccc5)cc4=O)ccc13)C2.Cl (centres unmarked) [Example 26, 4-(Benzyloxy)-1-(5,11-dimethyl-5,6,7,8,9,10-hexahydro-7,10-iminocyclohept[b]indol-3-yl)pyridin-2(1H)-one hydrochloride]",121 to 128 °C,–,9.7 nM
"Cn1c2c(c3ccc(-n4ccc(OCc5ccccc5)cc4=O)nc31)C1CCC(C2)N1 (centres unmarked) [Example 39, 4-(Benzyloxy)-1-(10-methyl-5,6,7,8,9,10-hexahydro-5,8-iminocyclohepta[4,5]pyrrolo[2,3-b]pyridin-2-yl)pyridin-2(1H)-one hydrochloride]",–,–,21 nM
"CN1C2CCC1c1c(n(C)c3nc(-n4ccc(OCc5ccccc5)cc4=O)ccc13)C2 (centres unmarked) [Example 42, 4-(Benzyloxy)-1-(10,11-dimethyl-5,6,7,8,9,10-hexahydro-5,8-iminocyclohepta[4,5]pyrrolo[2,3-b]pyridin-2-yl)pyridin-2(1H)-one hydrochloride]",–,–,27 nM
"Cn1c2c(c3ccc(-n4ccc(OCc5ccc(F)cn5)cc4=O)nc31)C1CCC(C2)N1 (centres unmarked) [Example 43, 4-((5-Fluoropyridin-2-yl)methoxy)-1-(10-methyl-5,6,7,8,9,10-hexahydro-5,8-iminocyclohepta[4,5]pyrrolo[2,3-b]pyridin-2-yl)pyridin-2(1H)-one hydrochloride]",–,–,38 nM
"Cn1c2c(c3ccc(-n4ccc(-c5ccc(C(F)(F)F)nc5)cc4=O)nc31)C1CCC(C2)N1 (centres unmarked) [Example 44, 1-(10-Methyl-5,6,7,8,9,10-hexahydro-5,8-iminocyclohepta[4,5]pyrrolo[2,3-b]pyridin-2-yl)-4-(6-(trifluoromethyl)pyridin-3-yl)pyridin-2(1H)-one hydrochloride]",–,–,110 nM
"Cn1c2c(c3ccc(-n4ccc(OCc5ccc(F)cc5F)cc4=O)nc31)C1CCC(C2)N1 (centres unmarked) [Example 45, 4-(2,4-Difluorobenzyloxy)-1-(10-methyl-5,6,7,8,9,10-hexahydro-5,8-iminocyclohepta[4,5]pyrrolo[2,3-b]pyridin-2-yl)pyridin-2(1H)-one hydrochloride]",–,–,26 nM
"Cn1c2c(c3ccc(N4CCN(CCc5ccc(Cl)cc5)CC4=O)nc31)C1CCC(C2)N1 (centres unmarked) [Example 46, 4-(4-Chlorophenethyl)-1-(10-methyl-5,6,7,8,9,10-hexahydro-5,8-iminocyclohepta[4,5]pyrrolo[2,3-b]pyridin-2-yl)-piperazin-2-one dihydrochloride]",–,–,99 nM
"Cn1c2c(c3ccc(-n4ccc(OCc5ccc(Cl)cc5F)cc4=O)nc31)C1CCC(C2)N1 (centres unmarked) [Example 47, 4-(4-Chloro-2-fluorobenzyloxy)-1-(10-methyl-5,6,7,8,9,10-hexahydro-5,8-iminocyclohepta[4,5]pyrrolo[2,3-b]pyridin-2-yl)pyridin-2(1H)-one hydrochloride]",–,–,14 nM
"Cn1c2c(c3ccc(-n4ccc(OCc5ccc(Cl)cc5Cl)cc4=O)nc31)C1CCC(C2)N1 (centres unmarked) [Example 48, 4-(2,4-Dichlorobenzyloxy)-1-(10-methyl-5,6,7,8,9,10-hexahydro-5,8-iminocyclohepta[4,5]pyrrolo[2,3-b]pyridin-2-yl)pyridin-2(1H)-one hydrochloride]",–,–,28 nM
"Cn1c2c(c3ccc(-n4ccc(-c5ccc(C(F)(F)F)cc5)cc4=O)nc31)C1CCC(C2)N1 (centres unmarked) [Example 50, 1-(10-Methyl-5,6,7,8,9,10-hexahydro-5,8-iminocyclohepta[4,5]pyrrolo[2,3-b]pyridin-2-yl)-4-(4-(trifluoromethyl)phenyl)pyridin-2(1H)-one hydrochloride]",–,–,19 nM
